According to patent US10894948B2, “Resetting pluripotent stem cells” (CAMBRIDGE ENTERPRISE LIMITED, priority 2014, dated 2021):
Entries after “also recorded” stand apart in the source; their conditions may differ.

How the values were obtained:
H9 and Shef6 cells = test: Resetting by transient transfection with NANOG and KLF2 plasmids; type: cell-based, human; conditions: pilot experiments
From the text: For transient expression and resetting we first generated H9 and Shef6 cells with an EOS-GFP/puro^R reporter (Hotta et al., 2009) introduced in a piggyBac vector. We have observed that in the PB rather than lentiviral vector context this reporter is initially expressed heterogeneously in conventional PSC and progressively silenced, but is re-expressed during resetting. We used NANOG and KLF2 expression constructs driven by the CAG promoter harbouring a blasticidin resistance gene. One well of a 6-well plate was transfected as above with 3 μg of non-linearised NANOG and KLF2 plasmids. Two days later, medium was switched to N2B27 with PD173074 (PD17, 0.5 μM), PD03 (0.5 μM) and hLIF. At day 4, cells were retransfected and on day 8 medium was changed to t2iL+Gö. Puromycin selection (0.5 μg/ml) was applied from day 12 onwards for two passages. Single colonies were picked on passage 4 or 5. […]
We investigated the timespan for resetting by inducing NANOG/KLF2 expression with DOX for finite intervals then assaying colony formation in t2iL+Gö. […] These were indistinguishable in morphology from cultures in which transgenes […] or from reset cells generated previously with inducible transgenes. qRT-PCR and immunostaining confirmed sustained expression of ground state pluripotency factors (FIG. 7E, F). […]

[1] = system: reset cells and conventional PSC; test: Oxygen consumption rate (SeaHorse extracellular flux); type: cell-based, human; conditions: injected during assay
Procedure: A. Oxygen consumption rate (OCR). Measurements obtained using a SeaHorse Extracellular Flux analyser.
Oxygen consumption was measured using an XF^e24 Analyzer (SeaHorse Bioscience) according to the manufacturer's protocol. In brief, SeaHorse plates were pre-treated by coating with laminin and 80,000 cells were seeded on each well the night before the experiment. Culture media were exchanged for XF Base Medium (SeaHorse bioscience) supplemented with 2 mM pyruvate and 20 mM glucose with an adjusted pH of 7.4 and cells incubated at 37° C. in atmospheric CO2 for one hour. Oligomycin (2 μM), FCCP ([…]), Antimycin (1 μM) and Rotenone (1 μM) were injected during assay (XF cell mito stress test kit, Seahorse Bioscience). Mitochondria were stained with Mito Tracker Green FM (final concentration 50 nM, Life Technologies) or Tetramethylrhodamine, ethyl ester (TMRE, final concentration 20 nM, Life Technologies) in the relevant medium for 10 minutes and analysed by confocal microscopy.

[2] = system: Human ES cells Shef6 and H9, which carry the EOS reporter; test: Resetting without transgenes, EOS-GFP reporter (FACS, colonies); type: cell-based
Procedure: PDL-HDACi comprises mTeSR™-E6 basal medium (Stem Cell Technologies) supplemented with 1 μM PD0325901, human LIF (10 ng/ml, prepared in house) and a
HDAC inhibitor such as valproic acid sodium salt (VPC, 0.5-1 mM, Sigma,) or sodium butyrate (SB, 0.5-1 mM, Sigma).
Optionally a Wnt pathway inhibitor such as XAV939 (2 μM) may be included, constituting PDXL.
Human ES cells Shef6 and H9, which carry the EOS reporter [Hotta], were plated at a density of 50,000 to 100,000 cells per well of a six well tissue culture dish in KSR/FGF medium supplemented with 10 μM ROCK inhibitor (Y-27632). The day after medium was replaced with resetting medium (PDL-HDACi or PDXL-HDACi) for the following three days. Thereafter the cells were maintained in naïve maintenance medium, T2ilGö-FROCKi (FIG. 30).
EOS reporter contains a GFPIresPuro cassette driven by LTR of early transposon and a trimer of mouse Oct4 distal enhancer. The EOS reporter in majority of conventional human ES cells is expressed at low to undetectable level by microscope. More than 80 percent of cells do show low to moderate GFP expression by flow cytometry analysis (FACS) (FIG. 31). The resetting medium induced vast cell death and differentiation three days after. The dome shaped GFP positive colonies appears around Day5 to Day7 and peaked after day10 to day 12 (FIG. 32, FIG. 33, FIG. 34). The colonies can then be passaged in bulk or picked singly using TrypLE™ express. Puromycin selection is applied for one or two passages to exclude differentiated cells if needed. The reset cells expressed elevated naïve state markers, TFCP2L1 and DPPA3 from Day7 during resetting (FIG. 35). Two pools, iS6-N and iS6-E, have been maintained over 15 passages and are karyotypically normal by G-band analysis. They form embryoid body readily in low adhesive 96 well plates and up-regulate differentiation markers (FIG. 36).

reset iH9-EOS cells = test: Culture of reset cells in t2iL with Ro-31-8425 replacing Gö6983; type: cell-based, human; conditions: 0.1 μM in t2iL, 25 days (7 passages)
Procedure: FIG. 41 Bright field and fluorescence images of reset iH9-EOS cells after culture for 25 days (7 passages) in […] with Ro-31-8425 (0.1 μM) replacing Gö6983.

reset cells [3] = test: Feeder-free culture of reset cells on Matrigel or Laminin 511-E8; type: cell-based, human; conditions: Gö reduced to 2 μM, ROCKi added prior to passaging
Procedure: For feeder-free culture plates were coated overnight at 4° C. with either diluted BD Matrigel hES-qualified Matrix (1:30) or Laminin 511-E8 (iMatrix-511; Nippi) at […] (Nakagawa et al., 2014). Cells were dissociated in the presence of ROCKi and plated in t2iL with Gö reduced to 2 μM.
Based on observations with mouse ESC we realised that Gö concentration was critical without buffering by feeders. We therefore reduced Gö to 2 μM and also added ROCKi prior to passaging. […] On both substrates cells could be expanded, albeit more slowly on laminin, and ground state pluripotency factor expression was retained over several passages (FIG. 1L).

reset H9 cells = test: Propagation of reset cells in 2iL upon DOX withdrawal; type: cell-based, human; conditions: 5 μM added to 2iL upon DOX withdrawal
Procedure: B. PKC inhibitor Gö6983 maintains the reset state in the absence of transgene expression. Upon DOX withdrawal cells in 2iL degenerated. […] Note that intrinsic fluorescence of Gö produces a faint red background signal.
To induce resetting, transfected PSC were dissociated with trypsin and replated as single cells in the presence of ROCK inhibitor. Doxycycline (DOX, 1 μM) was added the next day and 24 h later medium was changed to N2B27 medium (Ndiff227, StemCells Inc., SCS-SF-NB-02) with 1 μM PD0325901 (PD03), human LIF (prepared in-house), DOX and either 3 μM CHIR99021 (2iL+DOX) or 1 μM CHIR99021 (t2iL+DOX). Medium was changed every day. Cells were split every five to seven days after dissociation to single cells with Accutase (Life Technologies) for 10 minutes. Around two weeks after DOX induction, cells were transferred to t2iL+5 μM PKC inhibitor Gö6983 (Sigma-Aldrich) (t2iL+Gö). Reset cells cultured in t2iL+Gö were also passaged every five to seven days as single cells. Cells transferred to t2iL+Gö proliferate slowly for the initial couple of passages after withdrawal of DOX. Cells were maintained on MEF feeders throughout.
These cultures expressed OCT4 (FIG. 8) and expanded continuously, although proliferation was reduced and morphology less consistent compared to DOX-maintained cells.

reset cells [4] = test: Expansion of reset cells in different CH concentrations; type: cell-based, human
Procedure: C. Expansion of reset cells in different CH concentrations. Cells were plated at 5×10^4 cells per well and cultured for 4 days in PD03 (1 μM) with LIF, and 0, 1, or 3 μM CH. Y axis indicates cell number (×10^4).
Moderating GSK3 inhibition improves self-renewal of rat ES cells (Chen et al., 2013a; Meek et al., 2013) and we have also observed that combination of Gö6983 with the GSK3 inhibitor CH is unfavourable for mouse ESC propagation (J. Wray and A S, unpublished). We therefore titrated CH. […] Henceforth cells were maintained in titrated 2i with LIF and Gö6983 (t2iL+Gö).

reset cells [5] = test: Colony forming assay (alkaline phosphatase staining) in t2iL+Gö; type: cell-based, human; conditions: transgene-free reset cells in t2iL+Gö plus inhibitor, without ROCKi
Procedure: E. Colony forming assay. Cells maintained in t2iL+Gö were seeded without ROCKi at 2000 cells/well in 12 well dishes in t2iL+Gö plus FGF receptor inhibitor PD17 or TGF-β/activin receptor inhibitor A83-01. Colonies were stained for alkaline phosphatase after 7 days.
G. Colony forming assays on transgene-free reset cells. Cells maintained in t2iL+Gö were seeded at 2000 cells/well in […] in t2iL+Gö plus FGF receptor inhibitor PD17 or TGF-b/activin receptor inhibitor A83-01 and without ROCKi. Colonies were stained for alkaline phosphatase after 7 days.
Reset H9 cells maintained in t2iL+Gö were seeded without ROCKi at 2000 cells/well in 12 well dishes in t2iL+Gö. FGF receptor inhibitor PD173074 or TGF-β/activin receptor inhibitor A83-01 were added. Colonies were stained for alkaline phosphatase after 7 days.
Colony forming assays were carried out on MEF feeder cells by plating 1000 cells per well in 24-well plates, 2000 cells for 12-well plates and 5000 cells for 6-well plates. ROCKi was used for conventional but not reset cells. Activin/TGF β receptor inhibitor A83-01 was used at 0.25 μM where indicated. Plates were fixed and stained for alkaline phosphatase (Sigma-Aldrich, cat. 86R-1KT). Plates were scanned using a CellCelector (Aviso) or cellSens Dimension (Olympus).

SMILES: CCN(CC)CCCCNc1ncc2cc(-c3cc(OC)cc(OC)c3)c(NC(=O)NC(C)(C)C)nc2n1 [PD17]
- effect on the resetting process (H9 and Shef6 cells): might favour resetting

SMILES: CC[C@H]1/C=C/C=C/C[C@@H](C)[C@H](O)[C@@](C)(O)C(=O)[C@@H](C)[C@H](O)[C@@H](C)C(=O)[C@@H](C)[C@H](O)[C@@H](C)/C=C/C(=O)O[C@@H]2[C@H](C)[C@H](CC1)O[C@]1(CC[C@H](C)[C@H](C[C@@H](C)O)O1)[C@H]2C [oligomycin]
- oxygen consumption rate (OCR), reset cells versus conventional PSC [1]: difference was minimised

SMILES: N#CC(C#N)=NNc1ccc(OC(F)(F)F)cc1 [FCCP]
- oxygen consumption rate (OCR), reset cells versus conventional PSC [1]: greater OCR increase in reset cells than conventional PSC

SMILES: CCCC(=O)[O-].[Na+] [Sodium butyrate, sodium butyrate]
- resetting induction (GFP expression by FACS) ([2]; 7 days after resetting): potent resetting inducer

SMILES: Cn1cc(C2=C(c3c4n(c5ccccc35)CCC(CN)C4)C(=O)NC2=O)c2ccccc21 (stereo not shown) [Ro-31-8425]
- use as alternative PKC inhibitor for culture of reset cells (reset iH9-EOS cells): can be used as an alternative to Gö6983

SMILES: Oc1nc(-c2ccc(C(F)(F)F)cc2)nc2c1CSCC2 [XAV939]
- colony yield / resetting efficiency ([2]; 2 μM in transgene-free resetting medium (PDXL)): colony yield may be higher for some cell lines but colonies are also more heterogeneous; also recorded: could significantly increase resetting efficiency

SMILES: COc1ccc2c(c1)c(C1=C(c3c[nH]c4ccccc34)C(=O)NC1=O)cn2CCCN(C)C [Gö6983, 3-[1-[3-(dimethylamino)propyl]-5-methoxy-1H-indol-3-yl]-4-(1H-indol-3-yl)-1H-pyrrole-2,5-dione]
- undifferentiated colony formation without feeders (reset cells [3]): could form undifferentiated colonies on Matrigel or laminin 511-E8
- maintenance of the reset state in the absence of transgene expression (reset H9 cells): maintained cell proliferation and compact colony morphology; also recorded: allowed maintenance of compact refractile colonies without Venus expression

SMILES: CCCC(CCC)C(=O)[O-].[Na+] [VPC, valproic acid sodium salt]
- resetting efficiency (GFP expression by FACS) ([2]; three days VPC treatment, 7 days after resetting, increase from around 1%): ~3%

SMILES: Cc1c[nH]c(-c2cnc(NCCNc3ccc(C#N)cn3)nc2-c2ccc(Cl)cc2Cl)n1 [CH]
- growth rate and colony morphology (reset cells [4]; 1 μM CH, with PD03 (1 μM), LIF and Gö6983): restored growth rate while maintaining morphology
- growth rate and colony morphology (reset cells [4]; complete absence of CH): colony morphology improved in the complete absence of CH, but growth rate was reduced
- effect on the resetting process (H9 and Shef6 cells): appeared inhibitory to the resetting process

SMILES: Cc1cccc(-c2nn(C(=S)Nc3ccccc3)cc2-c2ccnc3ccccc23)n1 [A83-01]
- proliferation without differentiation (reset cells [5]): continued to proliferate without differentiation
